Experimental data published in patent US8697739B2, “Bicyclic acetyl-CoA carboxylase inhibitors and uses thereof” (Novartis AG, priority 2010, dated 2014).

target: T1, human acetyl-CoA carboxylase 2 (ACC2) (Homo sapiens, UniProt O00763); assay: Acetyl-CoA carboxylase enzyme assay (malonyl-CoA formation by LC/MS/MS); assay type: biochemical; conditions: recombinant human ACC2 (aa 144-2458); read-out: IC50 ACC2
T1 construct: The cDNA encoding amino acids 144 to 2458 of human acetyl-CoA carboxylase 2; made in house; host or cells: Sf9 insect cells (baculovirus, pFastBac1)
Summary of the method: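 Malonyl-CoA formation was read by LC/MS/MS MRM against a [13C3]-malonyl-CoA internal standard, after acetic acid quench. The enzyme was baculovirus/Sf9-expressed human ACC2 residues 144–2458, given 15 minutes room-temperature compound preincubation in HEPES pH 7.5 buffer with MgCl2, citrate and DTT. Substrate solution held 50 μM acetyl-CoA, 120 μM ATP and 2 mM KHCO3.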

T1 sequence (O00763 144-2458): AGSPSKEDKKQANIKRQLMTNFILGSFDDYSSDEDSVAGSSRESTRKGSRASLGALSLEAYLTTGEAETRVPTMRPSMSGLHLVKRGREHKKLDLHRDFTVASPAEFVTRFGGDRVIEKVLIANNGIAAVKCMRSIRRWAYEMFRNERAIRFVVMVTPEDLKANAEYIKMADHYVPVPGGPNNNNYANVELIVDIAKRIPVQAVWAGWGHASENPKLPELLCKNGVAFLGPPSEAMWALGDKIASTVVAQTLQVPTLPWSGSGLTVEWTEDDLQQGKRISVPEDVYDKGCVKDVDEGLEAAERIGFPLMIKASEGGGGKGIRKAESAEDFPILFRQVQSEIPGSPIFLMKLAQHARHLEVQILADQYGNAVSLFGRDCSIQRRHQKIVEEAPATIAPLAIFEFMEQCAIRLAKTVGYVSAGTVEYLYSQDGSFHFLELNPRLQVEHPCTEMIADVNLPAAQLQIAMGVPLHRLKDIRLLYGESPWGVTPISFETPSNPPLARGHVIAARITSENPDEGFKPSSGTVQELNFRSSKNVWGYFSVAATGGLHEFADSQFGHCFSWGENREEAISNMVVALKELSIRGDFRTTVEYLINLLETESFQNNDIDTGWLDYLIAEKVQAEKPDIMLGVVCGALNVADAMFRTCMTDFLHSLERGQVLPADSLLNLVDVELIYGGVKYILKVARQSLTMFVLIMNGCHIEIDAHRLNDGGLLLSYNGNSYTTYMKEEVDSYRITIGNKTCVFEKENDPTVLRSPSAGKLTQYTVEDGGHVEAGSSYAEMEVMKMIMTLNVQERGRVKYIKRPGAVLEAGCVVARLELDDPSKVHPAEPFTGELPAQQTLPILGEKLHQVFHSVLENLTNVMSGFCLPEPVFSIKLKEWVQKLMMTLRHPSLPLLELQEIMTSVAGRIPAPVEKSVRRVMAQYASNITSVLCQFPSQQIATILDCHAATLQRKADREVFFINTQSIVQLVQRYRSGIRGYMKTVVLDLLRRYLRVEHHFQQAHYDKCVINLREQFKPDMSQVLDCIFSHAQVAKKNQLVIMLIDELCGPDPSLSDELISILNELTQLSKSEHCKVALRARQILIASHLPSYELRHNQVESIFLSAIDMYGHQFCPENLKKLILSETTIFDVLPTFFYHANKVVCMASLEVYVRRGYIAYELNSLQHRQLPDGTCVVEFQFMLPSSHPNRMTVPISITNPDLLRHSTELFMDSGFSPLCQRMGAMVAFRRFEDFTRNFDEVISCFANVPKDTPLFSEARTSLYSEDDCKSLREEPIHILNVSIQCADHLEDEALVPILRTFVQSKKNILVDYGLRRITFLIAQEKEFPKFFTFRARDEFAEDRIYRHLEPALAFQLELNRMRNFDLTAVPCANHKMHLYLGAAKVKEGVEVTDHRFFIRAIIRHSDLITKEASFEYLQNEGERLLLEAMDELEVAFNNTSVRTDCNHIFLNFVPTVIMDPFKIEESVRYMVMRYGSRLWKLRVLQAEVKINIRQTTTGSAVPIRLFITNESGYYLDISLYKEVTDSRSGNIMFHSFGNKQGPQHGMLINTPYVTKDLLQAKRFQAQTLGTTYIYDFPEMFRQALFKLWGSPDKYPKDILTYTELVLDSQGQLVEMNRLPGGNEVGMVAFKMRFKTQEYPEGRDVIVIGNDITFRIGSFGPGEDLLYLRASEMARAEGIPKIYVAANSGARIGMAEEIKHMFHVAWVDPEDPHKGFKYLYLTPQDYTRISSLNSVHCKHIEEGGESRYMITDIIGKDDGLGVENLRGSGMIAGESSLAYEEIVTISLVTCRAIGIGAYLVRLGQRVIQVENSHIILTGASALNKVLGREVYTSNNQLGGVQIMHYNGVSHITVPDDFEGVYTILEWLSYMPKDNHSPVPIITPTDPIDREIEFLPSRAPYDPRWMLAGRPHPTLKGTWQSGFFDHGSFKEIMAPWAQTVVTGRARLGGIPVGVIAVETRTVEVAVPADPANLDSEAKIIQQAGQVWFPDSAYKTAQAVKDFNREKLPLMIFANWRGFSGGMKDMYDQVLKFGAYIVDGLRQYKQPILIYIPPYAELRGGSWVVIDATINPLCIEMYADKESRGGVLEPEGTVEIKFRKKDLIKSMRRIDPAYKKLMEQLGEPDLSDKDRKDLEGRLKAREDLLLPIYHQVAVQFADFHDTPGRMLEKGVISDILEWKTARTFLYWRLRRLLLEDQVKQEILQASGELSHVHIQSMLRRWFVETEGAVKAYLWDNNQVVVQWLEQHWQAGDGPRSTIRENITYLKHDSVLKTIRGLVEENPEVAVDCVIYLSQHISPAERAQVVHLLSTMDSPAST

| SMILES | IC50 [nM] |
| --- | --- |
| C[C@@H](NC(=O)[C@H]1CC[C@H](NS(=O)(=O)c2ccc3nc(OC4COC4)ccc3c2)CC1)c1ccccn1 [Example 83, (1r,4R)-4-(2-(oxetan-3-yloxy)quinoline-6-sulfonamido)-N-((R)-1-(pyridin-2-yl)ethyl)cyclohexanecarboxamide] | 855 |
| CC(C)(C)OC(=O)N1CCN(C(=O)[C@H]2CC[C@H](NS(=O)(=O)c3cnc4ccccc4c3)CC2)[C@@H](c2ccccc2)C1 [Example 84, (S)-tert-butyl 3-phenyl-4-((1r,4S)-4-(quinoline-3-sulfonamido)cyclohexanecarbonyl)piperazine-1-carboxylate] | 45 |
| O=C([C@H]1CC[C@H](NS(=O)(=O)c2cnc3ccccc3c2)CC1)N1CCNC[C@@H]1c1ccccc1 [Example 85, N-((1S,4r)-4-((S)-2-phenylpiperazine-1-carbonyl)cyclohexyl)quinoline-3-sulfonamide] | 143 |
| Cn1c(-c2ccccc2)cc2cc(S(=O)(=O)N[C@H]3CC[C@H](C(=O)N4CCN[C@H](C(F)(F)F)C4)CC3)ccc21 [Example 86, 1-methyl-2-phenyl-N-((1S,4r)-4-((S)-3-(trifluoromethyl)piperazine-1-carbonyl)cyclohexyl)-1H-indole-5-sulfonamide] | 75 |
| Cn1c(-c2ccccc2)cc2cc(S(=O)(=O)N[C@H]3CC[C@H](C(=O)N4CCN[C@@H](C(F)(F)F)C4)CC3)ccc21 [Example 87, 1-methyl-2-phenyl-N-((1R,4r)-4-((R)-3-(trifluoromethyl)piperazine-1-carbonyl)cyclohexyl)-1H-indole-5-sulfonamide] | 100 |
| C[C@@H](NC(=O)[C@H]1CC[C@H](NS(=O)(=O)c2ccc3c(c2)c(C#N)cn3C)CC1)c1ccc(F)cc1 [Example 88, (1r,4R)-4-(3-cyano-1-methyl-1H-indole-5-sulfonamido)-N-((R)-1-(4-fluorophenyl)ethyl)cyclohexanecarboxamide] | 50 |
| Cn1cc(C#N)c2cc(S(=O)(=O)N[C@H]3CC[C@H](C(=O)N[C@@H](c4ccccc4)C(C)(C)O)CC3)ccc21 [Example 89, (1r,4S)-4-(3-cyano-1-methyl-1H-indole-5-sulfonamido)-N-((S)-2-hydroxy-2-methyl-1-phenylpropyl)cyclohexanecarboxamide] | 20 |
| Cn1c(-c2ccccc2)cc2cc(S(=O)(=O)N[C@H]3CC[C@H](C(=O)N4CC(C(=O)O)CCC4c4ccccc4)CC3)ccc21 (stereo partly drawn) [Example 90, 1-((1r,4r)-4-(1-methyl-2-phenyl-1H-indole-5-sulfonamido)cyclohexanecarbonyl)-6-phenylpiperidine-3-carboxylic acid] | 260 |
| Cn1c(-c2ccccc2)cc2cc(S(=O)(=O)N[C@H]3CC[C@H](C(=O)N4CC(C(=O)O)CCC4c4ccccc4)CC3)ccc21 (stereo partly drawn) [Example 91, 1-((1r,4r)-4-(1-methyl-2-phenyl-1H-indole-5-sulfonamido)cyclohexanecarbonyl)-6-phenylpiperidine-3-carboxylic acid] | 30 |
| Cn1c(-c2ccccc2)cc2cc(S(=O)(=O)N[C@H]3CC[C@H](C(=O)N4CC(C(=O)O)CCC4c4ccccc4)CC3)ccc21 (stereo partly drawn) [Example 92, 1-((1r,4r)-4-(1-methyl-2-phenyl-1H-indole-5-sulfonamido)cyclohexanecarbonyl)-6-phenylpiperidine-3-carboxylic acid] | < 10 |
| Cn1c(-c2ccccc2)cc2cc(S(=O)(=O)N[C@H]3CC[C@H](C(=O)N4CC(C(=O)O)CCC4c4ccccc4)CC3)ccc21 (stereo partly drawn) [Example 93, 1-((1r,4r)-4-(1-methyl-2-phenyl-1H-indole-5-sulfonamido)cyclohexanecarbonyl)-6-phenylpiperidine-3-carboxylic acid] | 545 |
| Cn1c(-c2ccccc2)cc2cc(S(=O)(=O)N[C@H]3CC[C@H](C(=O)N[C@H](CC(=O)OC(C)(C)C)c4ccccc4)CC3)ccc21 [Example 94, (R)-tert-butyl 3-((1r,4R)-4-(1-methyl-2-phenyl-1H-indole-5-sulfonamido)cyclohexanecarboxamido)-3-phenylpropanoate] | 75 |
| Cn1c(-c2ccccc2)cc2cc(S(=O)(=O)N[C@H]3CC[C@H](C(=O)N[C@H](CC(=O)O)c4ccccc4)CC3)ccc21 [Example 95, (R)-3-((1r,4R)-4-(1-methyl-2-phenyl-1H-indole-5-sulfonamido)cyclohexanecarboxamido)-3-phenylpropanoic acid] | 30 |
| CC(C)(O)[C@@H](NC(=O)[C@H]1CC[C@H](NS(=O)(=O)c2ccc3ccccc3c2)CC1)c1ccccc1 [Example 96, (1r,4S)-N-((S)-2-hydroxy-2-methyl-1-phenylpropyl)-4-(naphthalene-2-sulfonamido)cyclohexanecarboxamide] | 10 |
| Cn1c(-c2ccccc2)cc2cc(S(=O)(=O)N[C@H]3CC[C@H](C(=O)N[C@@H](c4ccccc4)C(C)(C)C(=O)O)CC3)ccc21 [Example 97, (S)-2,2-dimethyl-3-((1r,4S)-4-(1-methyl-2-phenyl-1H-indole-5-sulfonamido)cyclohexanecarboxamido)-3-phenylpropanoic acid] | < 10 |
| COC(=O)[C@H]1CC[C@H](NS(=O)(=O)c2ccc3nc(-c4ccccc4)[nH]c3c2)CC1 [Example 98, (1r,4r)-methyl 4-(2-phenyl-1H-benzo[d]imidazole-6-sulfonamido)cyclohexanecarboxylate] | 4300 |
| O=C(OCc1ccccc1)[C@H]1CC[C@H](NS(=O)(=O)c2ccc3nc(-c4ccccc4)[nH]c3c2)CC1 [Example 99, (1r,4r)-benzyl 4-(2-phenyl-1H-benzo[d]imidazole-6-sulfonamido)cyclohexanecarboxylate] | 494 |
| COc1ccc(-c2nc3ccc(S(=O)(=O)N[C@H]4CC[C@H](C(=O)OCc5ccccc5)CC4)cc3[nH]2)cc1 [Example 100, (1r,4r)-benzyl 4-(2-(4-methoxyphenyl)-1H-benzo[d]imidazole-6-sulfonamido)cyclohexanecarboxylate] | 760 |
| COC(=O)c1ccc(COC(=O)[C@H]2CC[C@H](NS(=O)(=O)c3ccc4nc(-c5ccccc5)[nH]c4c3)CC2)cc1 [Example 101, methyl 4-(((1r,4r)-4-(2-phenyl-1H-benzo[d]imidazole-6-sulfonamido)cyclohexanecarbonyloxy)methyl)benzoate] | 1790 |
| C[C@@H](NC(=O)[C@H]1CC[C@H](NS(=O)(=O)c2ccc3[nH]c(-c4ccccc4)cc3c2)CC1)c1ccc(F)cc1 [Example 102, (1r,4R)-N-((R)-1-(4-fluorophenyl)ethyl)-4-(2-phenyl-1H-indole-5-sulfonamido)cyclohexanecarboxamide] | 45 |
| CC(C)(C)OC(=O)N1CCN(c2ccc(-c3nc4cc(S(=O)(=O)N[C@H]5CC[C@H](C(=O)N6CCOCC6)CC5)ccc4[nH]3)cc2)CC1 [Example 103, tert-butyl 4-(4-(5-(N-((1r,4r)-4-(morpholine-4-carbonyl)cyclohexyl)sulfamoyl)-1H-benzo[d]imidazol-2-yl)phenyl)piperazine-1-carboxylate] | 38 |
| O=C([C@H]1CC[C@H](NS(=O)(=O)c2ccc3[nH]c(-c4ccc(N5CCNCC5)cc4)nc3c2)CC1)N1CCOCC1 [Example 104, N-((1r,4r)-4-(morpholine-4-carbonyl)cyclohexyl)-2-(4-(piperazin-1-yl)phenyl)-1H-benzo[d]imidazole-5-sulfonamide] | 20 |
| C[C@@H](NC(=O)[C@H]1CC[C@H](NS(=O)(=O)c2cnc3ccccc3c2)CC1)c1ccc(F)cc1 [Example 105, (1r,4R)-N-((R)-1-(4-fluorophenyl)ethyl)-4-(quinoline-3-sulfonamido)cyclohexanecarboxamide] | 252 |
| CC(=O)N1CCc2cc(S(=O)(=O)N[C@H]3CC[C@H](C(=O)N[C@H](C)c4ccc(F)cc4)CC3)ccc21 [Example 106, (1r,4R)-4-(1-acetylindoline-5-sulfonamido)-N-((R)-1-(4-fluorophenyl)ethyl)cyclohexanecarboxamide] | 388 |
| C[C@@H](NC(=O)[C@H]1CC[C@H](NS(=O)(=O)c2ccc3[nH]cnc3c2)CC1)c1ccc(F)cc1 [Example 107, (1r,4R)-4-(1H-benzo[d]imidazole-5-sulfonamido)-N-((R)-1-(4-fluorophenyl)ethyl)cyclohexanecarboxamide] | 205 |
| C[C@@H](NC(=O)[C@H]1CC[C@H](NS(=O)(=O)c2ccc3[nH]c([C@@H]4CNCCN4)nc3c2)CC1)c1ccc(F)cc1 [Example 108, (1r,4R)-N-((R)-1-(4-fluorophenyl)ethyl)-4-(2-((S)-piperazin-2-yl)-1H-benzo[d]imidazole-5-sulfonamido)cyclohexanecarboxamide] | 1260 |
| C[C@@H](NC(=O)[C@H]1CC[C@H](NS(=O)(=O)c2ccc3c(c2)ncn3C)CC1)c1ccc(F)cc1 [Example 109, (1r,4R)-N-((R)-1-(4-fluorophenyl)ethyl)-4-(1-methyl-1H-benzo[d]imidazole-5-sulfonamido)cyclohexanecarboxamide] | 321 |
| C[C@@H](NC(=O)[C@H]1CC[C@H](NS(=O)(=O)c2ccc3c(c2)CCC(=O)N3)CC1)c1ccc(F)cc1 [Example 110, (1r,4R)-N-((R)-1-(4-fluorophenyl)ethyl)-4-(2-oxo-1,2,3,4-tetrahydroquinoline-6-sulfonamido)cyclohexanecarboxamide] | 290 |
| C[C@@H](NC(=O)[C@H]1CC[C@H](NS(=O)(=O)c2ccc3ncccc3c2)CC1)c1ccc(F)cc1 [Example 111, (1r,4R)-N-((R)-1-(4-fluorophenyl)ethyl)-4-(quinoline-6-sulfonamido)cyclohexanecarboxamide] | 139 |
| C[C@@H](NC(=O)[C@H]1CC[C@H](NS(=O)(=O)c2ccc3c(c2)NC(=O)CO3)CC1)c1ccc(F)cc1 [Example 112, (1r,4R)-N-((R)-1-(4-fluorophenyl)ethyl)-4-(3-oxo-3,4-dihydro-2H-benzo[b][1,4]oxazine-6-sulfonamido)cyclohexanecarboxamide] | 344 |
